Data published in patent US11083717B2, “Compositions and methods for drug sensitization of parasites” (The Texas A&M University System, priority 2015, dated 2021).
Like-named read-outs stand apart in the source and are kept apart here.

Tests used:
human fibroblast = test: in vitro
Description: (§1) These tests included an IL-12 mouse model test to determine compound efficacy, verification of MIC50 for CP, cytotoxicity test for fibroblasts and yeast to determine potential toxic effects, a Human ether-a-go-go-related gene (hERG) test to determine potential cardiotoxicity, an AMES test tp determine mutagenic potential, a Safety Screen 44 test to determine common negative off-target drug interastion (Eurofins Cerep, SA, France), a cytochrome P450 (CYP) test to determine potential liver toxicity, a maximum tolerated dose, test, a Pharmacokinetics (PK) test to determine fate of the substance administered to a living organism tests for plasma stability in human and mouse, to measure the degradation of compound in plasma MClint and HClint test to determine in vitro intrinsic clearance for Mouse and Human, and kinetic solubility and plasma protein binding tests in mouse and human.

S. cerevisiae = test: in vitro; settings: Saccharomyces cerevisiae
Description: as §1

SMILES	concentrations at which not toxic, human fibroblast cytotoxicity testing (human fibroblast; human) [µM]	concentrations at which not toxic, S. cerevisiae cytotoxicity testing (S. cerevisiae) [µM]	concentrations at which not toxic, human fibroblast cytotoxicity testing (human fibroblast) [µM]
CC(C)NC(=O)Nc1ccc(Oc2nc3ccc(Cl)cc3s2)c[n+]1[O-] [NZ-391, 1-{5-[(6-chloro-1,3-benzothiazol-2-yl)oxy]-1-oxo-1λ^5-pyridin-2-yl}-3-(propan-2-yl)urea]	≥ 100	≥ 100	–
CNC(=O)Cc1ccc(Oc2nc3ccc(Cl)cc3s2)cc1OC [NZ-392, 2-{4-[(6-chloro-1,3-benzothiazol-2-yl)oxy]-2-methoxyphenyl}-N-methylacetamide]	–	≥ 100	≥ 100
CC(C)NC(=O)Nc1ccc(Oc2nc3cc(Cl)c(Cl)cc3s2)cc1 [NZ-393, 1-{4-[(5,6-dichloro-1,3-benzothiazol-2-yl)oxy]phenyl}-3-(propan-2-yl)urea]	–	≥ 100	≥ 100
CNC(=O)C(C)c1ccc(Oc2nc3cc(Cl)c(Cl)cc3s2)cc1 (stereo not shown) [NZ-394, 2-{4-[(5,6-dichloro-1,3-benzothiazol-2-yl)oxy]phenyl}-N-methylpropanamide]	≥ 100	≥ 100	–
COC(=O)Cn1ccc(Oc2nc3ccc(Cl)cc3s2)cc1=O [NZ-396, methyl 2-{4-[(6-chloro-1,3-benzothiazol-2-yl)oxy]-2-oxo-1,2-dihydropyridin-1-yl}acetate]	≥ 100	≥ 100	–
O=C(O)Cn1ccc(Oc2nc3ccc(Cl)cc3s2)cc1=O [NZ-397, 2-{4-[(6-chloro-1,3-benzothiazol-2-yl)oxy]-2-oxo-1,2-dihydropyridin-1-yl}acetic acid]	–	≥ 100	≥ 100
O=C(O)Cc1ccc(Oc2nc3cc(F)c(F)cc3s2)cc1 [NZ-399, 2-{4-[(5,6-difluoro-1,3-benzothiazol-2-yl)oxy]phenyl}acetic acid]	–	≥ 100	≥ 100
CNC(=O)Cc1ccc(Oc2cnc3cc(Cl)ccc3n2)cc1O [NZ-402, 2-{4-[(6-chloroquinoxalin-2-yl)oxy]-2-hydroxyphenyl}-N-methylacetamide]	–	≥ 100	≥ 100
CC(C)NC(=O)Cn1ccc(Oc2nc3ccc(Cl)cc3s2)cc1=O [NZ-404, 2-{4-[(6-chloro-1,3-benzothiazol-2-yl)oxy]-2-oxo-1,2-dihydropyridin-1-yl}-N-(propan-2-yl)acetamide]	≥ 100	≥ 100	–
CC(C)NC(=O)Cc1ccc(O)cc1Oc1nc2ccc(F)cc2s1 [NZ-406, 2-{2-[(6-fluoro-1,3-benzothiazol-2-yl)oxy]-4-hydroxyphenyl}-N-(propan-2-yl)acetamide]	≥ 100	≥ 100	–
CC(C)NC(=O)Cc1ccc(Oc2nc3cc(F)c(F)cc3s2)cc1O [NZ-407, 2-{4-[(5,6-difluoro-1,3-benzothiazol-2-yl)oxy]-2-hydroxyphenyl}-N-(propan-2-yl)acetamide]	≥ 100	≥ 100	–
CNC(=O)C(C)c1ccc(Oc2nc3ccc(F)cc3s2)cc1O (stereo not shown) [NZ-408, 2-{4-[(6-fluoro-1,3-benzothiazol-2-yl)oxy]-2-hydroxyphenyl}-N-methylpropanamide]	≥ 100	≥ 100	–
CC(C)(C)OC(=O)Nc1ccc(Oc2nc3ccc(F)cc3s2)cc1 [NZ-412, tert-butyl N-{4-[(6-fluoro-1,3-benzothiazol-2-yl)oxy]phenyl}carbamate]	≥ 100	≥ 100	–
Nc1ccc(Oc2nc3ccc(F)cc3s2)cc1 [NZ-413, 4-[(6-fluoro-1,3-benzothiazol-2-yl)oxy]aniline]	≥ 100	≥ 100	–
CC(C)(C)OC(=O)NCCC(=O)Nc1ccc(Oc2nc3ccc(F)cc3s2)cc1 [NZ-414, tert-butyl N-[2-({4-[(6-fluoro-1,3-benzothiazol-2-yl)oxy]phenyl}carbamoyl)ethyl]carbamate]	≥ 100	≥ 100	–
CC(C)(C)OC(=O)NCC(=O)Nc1ccc(Oc2nc3ccc(F)cc3s2)cc1 [NZ-415, tert-butyl N-[({4-[(6-fluoro-1,3-benzothiazol-2-yl)oxy]phenyl}carbamoyl)methyl]carbamate]	≥ 100	≥ 100	–
NCCC(=O)Nc1ccc(Oc2nc3ccc(F)cc3s2)cc1 [NZ-416, 3-amino-N-{4-[(6-fluoro-1,3-benzothiazol-2-yl)oxy]phenyl}propanamide]	≥ 100	≥ 100	–
O=C(O)Cn1ccc(Oc2nc3ccc(F)cc3s2)cc1=O [NZ-418, 2-{4-[(6-fluoro-1,3-benzothiazol-2-yl)oxy]-2-oxo-1,2-dihydropyridin-1-yl}acetic acid]	≥ 100	≥ 100	–
CNC(=O)Cn1ccc(Oc2nc3ccc(F)cc3s2)cc1=O [NZ-419, 2-{4-[(6-fluoro-1,3-benzothiazol-2-yl)oxy]-2-oxo-1,2-dihydropyridin-1-yl}-N-methylacetamide]	≥ 100	≥ 100	–
CC(=O)Nc1ccc(Oc2nc3ccc(F)cc3s2)cc1 [NZ-420, N-{4-[(6-fluoro-1,3-benzothiazol-2-yl)oxy]phenyl}acetamide]	≥ 100	≥ 100	–
O=C(O)Cc1c(F)cc(Oc2nc3ccc(Cl)cc3s2)cc1F [NZ-458, 2-{4-[(6-chloro-1,3-benzothiazol-2-yl)oxy]-2,6-difluorophenyl}acetic acid]	≥ 100	≥ 100	–
O=C(Nc1ccc(Oc2nc3ccc(Cl)cc3s2)cc1)N1CCNCC1 [NZ-509, N-{4-[(6-chloro-1,3-benzothiazol-2-yl)oxy]phenyl}piperazine-1-carboxamide]	≥ 100	≥ 100	–
CC(C(=O)N1CCN(C(C)C)CC1)c1ccc(Oc2nc3ccc(Cl)cc3s2)cc1 (stereo not shown) [NZ-510, 2-{4-[(6-chloro-1,3-benzothiazol-2-yl)oxy]phenyl}-1-[4-(propan-2-yl]piperazin-1-yl]propan-1-one]	≥ 100	≥ 100	–
